Measurements: patent US9421254B2, “Immunostimulatory combinations of TLR ligands and methods of use” (The United States of America, as represented by the …, priority 2007, dated 2016)
Entries after “also recorded” stand apart in the source; their conditions may differ.

How the values were obtained:
[1] = system: BMDCs; assay: Secreted cytokines/chemokines from BMDCs treated in vitro with TLR ligands (multiplex); format: cell-based, mouse; conditions: FIG. 3D
[2] = system: BMDCs; assay: Intracellular IL-12 and CD86 on BMDCs treated in vitro with TLR ligands (flow cytometry); conditions: for synergy with PolyI:C in IL-12 production: TLR2 ligand combined with PolyI:C; for inducing IL-12 production from DCs / upregulation of CD86 expression: TLR4 ligand alone; for inducing IL-12 production from DCs: relative to MALP-2+PolyI:C and PolyI:C+CpG; for upregulation of CD86 expression: relative to PolyI:C, FIG. 9B
[3] = system: popliteal LN MHC class II+CD11c+ DCs; assay: DC activation in popliteal LNs after footpad immunization with TLR ligands; format: in vivo, mice; conditions: FIG. 5D
Protocol: Mice were immunized in the footpads with MALP-2, PolyI:C and CpG singly or pairwise. Paired popliteal LN cells were isolated 36 hours later for assay by flow cytometry. […] Panel (D) is a graph showing CD86 expression on DCs.
If this hypothesis were true, it may be expected that use of synergistic combinations of TLRs as adjuvant would result in similar activation of DCs in vivo. To test this hypothesis, DCs were isolated from popliteal LNs following footpad immunization with TLR ligands and examined ex vivo. […] Therefore, the interplay of TLRs in activating DCs in vivo is nonrandom and mediated through potentiating MyD88-dependent cytokines that could account for the activation of specific T cells.

[4] = system: purified T cells; assay: Purified T cells cultured with recombinant cytokines/chemokines (CD69); format: cell-based, mouse; conditions: added to MyD88-dependent cytokines; FIG. 12B
Protocol: Panel (A) is a graph showing the results when BMDC pretreated with MALP-2+PolyI:C were cultured with purified T cells in the presence of neutralizing antibodies against cytokines as indicated. CD69+ T cells were measured 24 hours later. Panel (B) is a graph showing the results when purified T cells were culture in the presence of IL-12 (25 ng/ml), TNFa (10 ng/ml), MIP-1a (50 ng/ml) and IP-10 (25 ng/ml) singly or in combinations as indicated. CD69+CD8+ T cells were measured after 24 hours of treatment.
As there are several MyD88-dependent inflammatory cytokines that are produced downstream of the JNK/c-Jun pathway, blocking one of these cytokines may not be expected to abolish the synergy effect.

| Compound | synergy with PolyI:C in IL-12 production ([2]; FIG. 9A) | inducing IL-12 production from DCs [2] | upregulation of CD86 expression [2] | further results |
| --- | --- | --- | --- | --- |
| polyinosine-polycytidylic acid [PolyI:C] | – | – | – | IP-10 production by DCs ([1]; ligand alone): produce IP-10; IL-12 production on addition to the TLR4 stimulation ([2]; FIG. 9A): did not further enhance; CD86 expression on DCs ([2]; ligand alone, FIG. 3C): upregulate CD86 expression; expression of CD86 by LN DCs ([3]; ligand alone): upregulated |
| macrophage activating lipoprotein (MALP-2) | did | – | – | further increase in IP-10 production compared to PolyI:C alone ([1]; ligand added to PolyI:C): did not result in a further increase; further increase in CD86 expression compared to PolyI:C alone ([2]; ligand added to PolyI:C, FIG. 3C): did not result in a further increase; increase in CD86 by LN DCs when ligand included with PolyI:C [3]: no significant increases |
| CCCCCCCCCCCC(=O)CC(=O)N[C@H](COCC[C@@H](CCCCCCC)OC(=O)CCCCCCCCCCC)COP(=O)(O)OCCNC(=O)NCCOP(=O)(O)OC[C@@H](COCC[C@@H](CCCCCCC)OC(=O)CCCCCCCCCCC)NC(=O)CC(=O)CCCCCCCCCCC [E6020] | – | equivalent | efficacy equivalent to PolyI:C | – |
| monophosphoryl lipid A [MPL] | – | equivalent | efficacy equivalent to PolyI:C | – |
| lipopolysaccharide [LPS] | – | equivalent | efficacy equivalent to PolyI:C | – |
| Lipoteichoic acids [LTA] | could also act synergistically and did | – | – | – |
| IP-10: Recombinant IP-10 protein purchased from Peprotech | – | – | – | enhancement of the CD69 response already induced by the MyD88-dependent cytokines [4]: did not significantly enhance |
| PAM3CSK4 | could not; also recorded: did not synergize | – | – | – |
